Results reported in ChEMBL document CHEMBL1133901, “Synthesis and potassium channel opening activity of substituted 10H-benzo[4,5]furo[3,2-b]indole-and 5,10-dihydro-indeno[1,2-b]indole-1-carboxylic acids” (Bioorg Med Chem Lett, 2001).

Organism: Rattus norvegicus
Experiment: Concentration that relaxed KCl-induced contractions in rat detrusor strips by 50%
Type: functional
Conditions: not given

IC50 [µM] | Compound
> 30 | Cn1c2c(C(=O)O)cccc2c2oc3ccc(Br)cc3c21
> 30 | NC(=O)c1cccc2c1[nH]c1c3cc(Br)ccc3oc21
5.2 | CC1(C)c2ccc([N+](=O)[O-])cc2-c2[nH]c3c(C(=O)O)cccc3c21
> 30 | NS(=O)(=O)c1ccc2[nH]c3c(c2c1)Cc1c(C(=O)O)cccc1-3
> 30 | COC(=O)c1cccc2c1[nH]c1c3cc(Br)ccc3oc21
> 30 | O=Cc1cccc2c1[nH]c1c3cc(Br)ccc3oc21
15.1 | O=C(O)c1cccc2c1[nH]c1c3cc(Br)ccc3oc21
22.6 | O=C(O)c1cccc2c1Cc1c-2[nH]c2ccc(Cl)cc12
4.4 | O=C(O)c1cccc2c1Cc1c-2[nH]c2ccc(Br)cc12
5.8 | O=C(O)c1cccc2c1[nH]c1c3cc(Cl)ccc3oc21
6.1 | O=C(O)c1cccc2c1[nH]c1c3cc(I)ccc3oc21
30 | O=C(O)c1cccc2c1[nH]c1c3ccccc3oc21
10.1 | O=C(O)c1cccc2c1Cc1c-2[nH]c2ccc(I)cc12
15.4 | O=C(O)c1cccc2c1Cc1c-2[nH]c2ccc(OC(F)(F)F)cc12

Compound | IC50 [µM]
O=C(O)c1cccc2c1[nH]c1c3cc([N+](=O)[O-])ccc3oc21 | 6.3

Organism: Rattus norvegicus
Experiment: Concentration that relaxed KCl-induced contractions in rat aortic rings by 50%
Type: functional
Conditions: Aorta

IC50 [µM] | Compound
17.2 | CC1(C)c2ccc([N+](=O)[O-])cc2-c2[nH]c3c(C(=O)O)cccc3c21
118 | O=C(O)c1cccc2c1[nH]c1c3cc(Br)ccc3oc21
109 | O=C(O)c1cccc2c1Cc1c-2[nH]c2ccc(Br)cc12
210 | O=C(O)c1cccc2c3c([nH]c12)-c1cc(Br)ccc1C3
